Test results published in ChEMBL document CHEMBL1145655, “Plant anticancer agents XXV. Constituents of Soulamea soulameoides” (1983).
Values after ≈ are worked out from the molar mass of the structure shown.

Tests used:
Format in all cases: functional
P388 [1] = assay: In vivo antitumor activity against mouse P388 cells at 2.5 mg/kg relative to control
KB = assay: Cytotoxicity against human KB cells; conditions: read-out: ED50 (the source's name)
P388 [2] = assay: In vivo antitumor activity against mouse P388 cells at 1.25 mg/kg relative to control
P388 [3] = assay: In vivo antitumor activity against mouse P388 cells at 5 mg/kg relative to control
P388 [4] = assay: Cytotoxicity against mouse P388 cells; conditions: read-out: ED50 (the source's name)
P388 [5] = assay: In vivo antitumor activity against mouse P388 cells at 3.8 mg/kg relative to control
P388 [6] = assay: In vivo antitumor activity against mouse P388 cells at 0.9 mg/kg relative to control
P388 [7] = assay: In vivo antitumor activity against mouse P388 cells at 7.5 mg/kg relative to control
P388 [8] = assay: In vivo antitumor activity against mouse P388 cells at 1.9 mg/kg relative to control
P388 [9] = assay: In vivo antitumor activity against mouse P388 cells at 1 mg/kg relative to control
P388 [10] = assay: In vivo antitumor activity against mouse P388 cells at 0.25 mg/kg relative to control
P388 [11] = assay: In vivo antitumor activity against mouse P388 cells at 0.5 mg/kg relative to control
P388 [12] = assay: In vivo antitumor activity against mouse P388 cells at 2.46 mg/kg relative to control
P388 [13] = assay: In vivo antitumor activity against mouse P388 cells at 19.6 mg/kg relative to control
P388 [14] = assay: In vivo antitumor activity against mouse P388 cells at 4.92 mg/kg relative to control
P388 [15] = assay: In vivo antitumor activity against mouse P388 cells at 9.83 mg/kg relative to control

## O=c1ccc2nccc3c4c(O)cccc4n1c23
P388 [1]
  T/C: 107%
KB
  EC50: 2.1 µg/mL (≈ 8.89 µM)
P388 [2]
  T/C: 108%
P388 [3]
  T/C: 102%
P388 [4]
  EC50: 2.3 µg/mL (≈ 9.74 µM)

## COc1cc([C@H]2Oc3c(OC)cc4ccc(=O)oc4c3O[C@@H]2CO)ccc1O [CLEOMISCOSIN A]
KB
  EC50: 4.9 µg/mL (≈ 12.7 µM)
P388 [4]
  EC50: 2.8 µg/mL (≈ 7.25 µM)

## CC1=CC(=O)[C@@H](O)[C@]2(C)[C@H]3[C@]4(O)OC[C@]35[C@H]([C@@H](C)[C@H]4O)[C@@H](O)C(=O)O[C@@H]5C[C@@H]12 [GLAUCARUBOLONE]
KB
  EC50: 0.11 µg/mL (≈ 0.279 µM)
P388 [3]
  T/C: 132%
P388 [4]
  EC50: 0.01 µg/mL (≈ 0.0254 µM)

## CC(=O)O[C@H]1C(=O)O[C@@H]2C[C@H]3C(C)=CC(=O)[C@@H](O)[C@]3(C)[C@H]3[C@]4(O)OC[C@]32[C@@H]1[C@@H](C)[C@H]4O [HOLACANTHONE]
P388 [5]
  T/C: 154%
P388 [6]
  T/C: 127%
P388 [7]
  T/C: 136%
P388 [8]
  T/C: 134%

## COC(=O)[C@]12OC[C@]34[C@H]([C@@H](O)[C@@H]1O)[C@@]1(C)[C@H](O)C(=O)C=C(C)[C@@H]1C[C@H]3OC(=O)[C@H](OC(=O)CC(C)C)[C@@H]24 [ISOBRUCEIN A]
P388 [9]
  T/C: 155%
P388 [10]
  T/C: 138%
KB
  EC50: 0.003 µg/mL (≈ 0.00574 µM)
P388 [11]
  T/C: 145%
P388 [4]
  EC50: 0.001 µg/mL (≈ 0.00191 µM)

## COC1=C(C)[C@@H]2CC(=O)O[C@@H]3C[C@H]4C(C)=C[C@H](O)C(=O)[C@]4(C)[C@@H](C1=O)[C@@]32C [PICRASIN B]
P388 [12]
  T/C: 107%
P388 [13]
  T/C: 107%
KB
  EC50: > 100 µg/mL
P388 [14]
  T/C: 102%
P388 [15]
  T/C: 107%
P388 [4]
  EC50: > 100 µg/mL
